Patent US4675337A, “Non-mutagenic 1,2-disubstituted 4-nitro-imidazoles useful as antiprotozoal agents” (priority 1986, dated 1987)
In brackets after ≈: the same amount, converted by molar mass. Like-named read-outs stand apart in the source and are kept apart here.

Key:
[1] = system: T. foetus; experiment: Trichomonal activity in vitro; type: cell-based; settings: Tritrichomonas foetus, Table I, read-out: ED50 (T. foetus) in vitro
[2] = system: T. foetus; experiment: Trichomonal activity in vivo: survival of mice infected i.p. with T. foetus; settings: Tritrichomonas foetus, po, 336 h
Method: Mice were infected through intraperitoneal (I.P.) injection of 1.4×10^7 T. foetus. Each compound disclosed in Table I below was dissolved in an aqueous vehicle, dosed to groups of mice (consisting of five) by gavage. The mice were dosed once per day for four consecutive days with doses ranging from 1-50 mg/kg. The effective dose of the compound, ED50, was calculated from the number of animals surviving a two week period.

[3] = system: Ames Salmonella TA100; settings: for In vivo Safety Index (rel to flagyl): relative increase in safety (1/mutagenicity) at the ED50 dose, relative to flagyl
Source text: This test involves the addition to a fermentation medium in which is growing a particular organism identified as Ames Salmonella TA100, and measuring the number of mutant organisms formed.

[4] = system: Rat hepatocytes; experiment: Single strand DNA breaks in rat hepatocytes (elution); type: cell-based; settings: for Relative Elution Slope: relative to control 1.00, ≥3.0 significant
Source text: *Measure of the extent of DNA strand cleavage. Only relative elution
slopes ≥3.0 are considered significant. Therefore, […]

[5] = Cytotoxicity in rat hepatocytes; type: cell-based; settings: relative to control cells
Source text: **Relative viability is the number of hepatocytes surviving exposure to
the nitroimidazoles relative to the control cells.

[6] = Table I, gavage once per day for four consecutive days, survival over two weeks, read-out: ED50 (T. foetus) in vivo
[7] = Table III, read-out: T. foetus (ED50) In vivo
[8] = Table II, read-out: T. foetus In Vivo (ED50)
[9] = Table II, relative to ronidazole

Structure (SMILES) | IC50 [1] [µg/mL] | ED50 [2, 6] [mg/kg] | ED50 [2, 7] [mg/kg] | Mutagenicity ([3]; Table III, Ames TA100 strain) [percent ronidazole] | other results
CC(C)S(=O)(=O)c1nc([N+](=O)[O-])cn1C [Compound 4, 1-methyl-2-isopropylsulfonyl-4-nitroimidazole] | 21 (≈ 90 µM) | 5 to 10 | 5 to 10 | 0.1 | –
CCSc1nc([N+](=O)[O-])cn1C [Compound 8, 1-methyl-2-ethylthio-4-nitroimidazole] | 2.3 (≈ 12.3 µM) | 2 | – | – | ED50 [2, 8]: 2 mg/kg; Relative Elution Slope ([4]; 0.5 mM): 1.33; Relative Elution Slope ([4]; 1.5 mM): 1.23; Relative Elution Slope ([4]; 5.0 mM): 1.60; significant DNA strand breakage (in words) ([4]; up to 5.0 mM): did not cause significant DNA strand; viability at 500 µM ([5]; 0.5 mM): 107%; viability at 1500 µM ([5]; 1.5 mM): 105%; viability at 5000 µM ([5]; 5.0 mM): 102%; mutants per plate ([3]; 3 μg per plate): indistinguishable from background; mutants per plate ([3]; 30 μg per plate): indistinguishable from background; mutants per plate ([3]; 100 μg per plate): 30 mutants per plate; mutants per plate ([3]; 300 μg per plate): 65 mutants per plate; mutagenicity (conclusion in words) ([3]; Ames test): non-mutagenic; In vivo Safety Index (rel to flagyl) ([3]; Table II): > 1750; Mutagenicity [3, 9]: < 0.1 percent Ronidazole
CCS(=O)(=O)c1nc([N+](=O)[O-])cn1C [Compound 2, 1-methyl-2-ethylsulfonyl-4-nitroimidazole] | 18.5 (≈ 84.4 µM) | 2 to 5 | 2 to 5 | 0.1 | –
Cc1ncc([N+](=O)[O-])n1CCO [Flagyl, 1-(2-hydroxyethyl)-2-methyl-5-nitro-imidazole, reference compound] | 0.4 (≈ 2.34 µM) | 25 to 50 | 25 to 50 | – | ED50 [2, 8]: 50 mg/kg; DNA strand breaks (in words) ([4]; at both 3.0 and 10.0 mM): caused breaks; viability at 3000 µM ([5]; 3.0 mM): 107%; viability at 10000 µM ([5]; 10.0 mM): 101%
CCCS(=O)(=O)c1nc([N+](=O)[O-])cn1C [Compound 3, 1-methyl-2-propylsulfonyl-4-nitroimidazole] | 27 (≈ 116 µM) | 5 to 10 | 5 to 10 | 0.1 | –
Cn1c([N+](=O)[O-])cnc1COC(N)=O [Ronidazole, 1-methyl-2-[(carbamoyloxy)methyl]-5-nitroimidazole, reference compound] | – | – | 5 to 10 | 100.0 | ED50 [2, 8]: 2 to 5 mg/kg; mutants per plate ([3]; 3 μg per plate): 358 mutants per plate; mutants per plate ([3]; 30 μg per plate): 2682 mutants per plate; In vivo Safety Index (rel to flagyl) ([3]; Table II): 0.7; Mutagenicity [3, 9]: 100 percent Ronidazole
Cn1cc([N+](=O)[O-])nc1S(=O)(=O)c1ccccc1 [Compound 5, 1-methyl-2-phenylsulfonyl-4-nitroimidazole] | 17 (≈ 63.6 µM) | 10 to 25 | 10 to 25 | 0.1 | –

Further lines, with some results ahead:

IC50 [1] [µg/mL] | Structure (SMILES) | ED50 [2, 6] [mg/kg] | ED50 [2, 7] [mg/kg] | Mutagenicity ([3]; Table III, Ames TA100 strain) [percent ronidazole] | other results
25 (≈ 114 µM) | CCn1cc([N+](=O)[O-])nc1S(C)(=O)=O [Compound 1] | 10 to 50 | – | – | –
14 (≈ 74 µM) | Cn1cc([N+](=O)[O-])nc1[S+](C)[O-] (stereo not drawn) [Compound 6, 1-methyl-2-methylsulfinyl-4-nitroimidazole] | 2 to 5 | – | – | –
4 (≈ 19.9 µM) | CCCSc1nc([N+](=O)[O-])cn1C [Compound 9, 1-methyl-2-propylthio-4-nitroimidazole] | 5 | – | – | –
4 (≈ 19.9 µM) | CC(C)Sc1nc([N+](=O)[O-])cn1C [Compound 10, 1-methyl-2-isopropylthio-4-nitroimidazole] | 10 to 50 | – | – | –
2.1 (≈ 12.1 µM) | CSc1nc([N+](=O)[O-])cn1C [Compound 7, 1-methyl-2-methylthio-4-nitroimidazole] | 5 to 10 | – | – | –
